Our source for the EC50 and Emax values is patent publication US12275733B2, “Substituted pyrido[3,4-b]indoles for the treatment of cartilage disorders” (Sanofi, priority 2016, dated 2025).

In test [1] the test system is primary human chondrocyte pellet cultures. The test can be described thus: Chondrogenesis activity assay in primary human chondrocyte pellet cultures (proteoglycan (aggrecan) induction, Blyscan assay). The note with it: for EC50: 336 h, proteoglycan (aggrecan) induction, primary human chondrocyte pellets, 2 weeks culture; for Emax: Homo sapiens, Chondrocyte, maximum percent proteoglycan (aggrecan) induction relative to the internal reference compound at 10 μM. It counts as cell-based. As for the experimental part: B) Chondrogenesis Activity Assay in Primary Human Chondrocyte Pellet Cultures
In this assay human articular chondrocytes are harvested by enzymatic digestion from articular cartilage and passaged several times to dedifferentiate the chondrocytes and to propagate the cells. Cells are cultured as cell pellets in the presence of the compounds of the invention over 2 weeks, and the chondrogenic differentiation is quantified by the production of the chondrogenic marker aggrecan (proteoglycan).
In detail, primary chondrocytes were harvested by enzymatic digestion from cartilage of osteoarthritis patients undergoing knee joint replacement surgery, and cultured in vitro. Cells were passaged one or two times and aliquots were cryopreserved. To initiate chondrogenesis experiments, cell aliquots were thawn, cultured in Chondrocyte Growth Medium (CGM, Lonza, #CC-3216) and passaged twice to further propagate and dedifferentiate cells. Pellet cultures were initiated by seeding 2.5×10E5 cells per well into a 96-well deep well plate in 600 μl chondrocyte differentiation medium consisting of Dulbecco's Modified Eagle Medium (DMEM, Invitrogen, #41966), 1×ITS-solution (Insulin/Transferrin/sodium selenite; 100× solution: Invitrogen, #51500056), 5 μg/mL linoleic acid (Sigma, #L1012-1G), 1× nonessential amino acids (100× solution: Invitrogen, #11140); 10 nM Dexamethasone, 2 ng/ml TGF-β1 (transforming growth factor β1) and 10 μg/ml ascorbic acid. Cells were spun to pellets by centrifugation (10 min, 400×g). Test compounds dissolved in DMSO were added to yield increasing compound concentrations, typically from 40 nM to 10 μM, and a final DMSO concentration of 0.1%, and the cell pellets cultured at 37° C., and 5% CO2 for 2 weeks. On each 96-well plate, control wells containing no test compound but the same concentration of DMSO, i.e. untreated cells, were included and used as reference for the determination of the effect of the test compounds on the cells, and wells containing an internal reference compound at a concentration of 10 μM were included and used as positive control and for standardizing the results. Chondrocyte differentiation medium and the compounds were exchanged twice weekly until harvest of the pellets.
For harvest of the pellets, medium was removed and the pellet was homogenized by enzymatic digestion. 100 μl of protease solution containing 0.4 mg/ml papain, 50 mM sodium phosphate, 4 mM EDTA and 0.48 mg/ml L-cysteine was added to the pellet in each well of a 96-well plate, the plate was sealed with a plate sealer foil (SILVERseal, Greiner Bio-One) and incubated for 4 to 6 hours at 65° C. with agitation.
The concentration of proteoglycan (aggrecan) was determined by quantification of the sulfated glycosaminoglycan side chains of aggrecan using the Blyscan assay (Kit from Biocolor). Aliquots of the papain-digest were transferred to 400 μl of Blyscan dye solution and incubated at room temperature for 45 min with agitation (1200 rpm). The mixture was centrifuged at 3760×g for 45 min, the supernatant was discarded, and the stained pellet was redissolved in 400 μl of Blyscan dissociation reagent by rotation until the precipitate completely resolved. Optical density was measured at 656 nm using a Tecan Saphire2 instrument, and the amount of proteoglycan determined against a standard curve with chondroitin-4-sulfate.
Induction of proteoglycan (aggrecan) was calculated for each compound concentration relative to the control (untreated cells, i.e. no test compound added), and an EC50 value (effective concentration 50 (in μM (micromollliter)), i.e. the compound concentration at which the effect of the compound on proteoglycan (aggrecan) induction reaches 50% of the maximum induction) was calculated using a sigmoidal signal fit procedure. […]

Test [2] relates to ATDC5 cells. The test can be described thus: Chondrogenesis activity assay in ATDC5 cells (collagen type II induction, immunofluorescence). The format is cell-based, mouse. The note with it: Mus musculus; for EC50: collagen type II induction in ATDC5 cells, concentration reaching 50% of maximum induction; for Emax: maximum percent induction of collagen type II relative to internal reference compound at 10 μM, ATDC5 cells. In short, it runs like this:
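Collagen type II was stained in fixed, permeabilized cells with an Alexa Fluor 488 secondary and measured by high-content fluorescence imaging. ATDC5 cells had 4 days at 37 °C in insulin-supplemented differentiation medium with compound, typically 40 nM–10 μM, 0.1% DMSO. DMSO wells and a 10 μM internal reference compound were used for normalization.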

Molecules are shown by their SMILES. Where only a bound is given, the exact number is not on record here.

By EC50 is commonly meant the concentration that produces a half-maximal response. A high value points to lower potency in that assay. As a reminder, the Emax is the size of the effect at its maximum, as opposed to the concentration needed. In test [1], `FC(F)(F)Cn1c2cnccc2c2cc(Cl)cc(-c3cnn(Cc4cccnc4)c3)c21` [Example 2, 6-Chloro-8-(1-(pyridin-3-ylmethyl)-1H-pyrazol-4-yl)-9-(2,2,2-trifluoroethyl)-9H-pyrido[3,4-b]indole] gave an EC50 of 4400 nM and an Emax above 200%. In test [2], this compound yielded an EC50 of 710 nM and an Emax above 80%.
The matching figures for `CCn1c2c(-c3cnn(Cc4cccnc4)c3)cc(Br)cc2c2ccnc(C)c21` [Example 5, 6-Bromo-9-ethyl-1-methyl-8-(1-pyridin-3-ylmethyl-1H-pyrazol-4-yl)-9H-pyrido[3,4-b]indole]: 1300 nM, above 200%, 490 nM and above 80%.
In test [1], `Cc1nccc2c1[nH]c1c(-c3ccc(OCC4(C)COC4)cc3)cc(Cl)c(C)c12` [Example 8, 6-Chloro-1,5-dimethyl-8-[4-(3-methyl-oxetan-3-ylmethoxy)-phenyl]-9H-pyrido[3,4-b]indole] had an EC50 of 260 nM and an Emax of 100 to 200%. Further, in test [2], the EC50 was found to be 120 nM and the Emax was above 80%.
Regarding `OCCn1cc(-c2cc(Cl)cc3c4ccncc4n(CC(F)(F)F)c23)cn1` [Example 10, 2-(4-[6-Chloro-9-(2,2,2-trifluoroethyl)-9H-pyrido[3,4-b]indol-8-yl]pyrazol-1-yl)ethanol], the EC50 in test [1] is 2400 nM; in test [2] it was 690 nM. For the same compound, the Emax is 40 to 100% in test [1] and above 80% in test [2].
Taken in the same sequence, the figures for `FC(F)(F)Cn1c2cnccc2c2cc(Cl)cc(-c3cnn(-c4ccccc4)c3)c21` [Example 11, 6-Chloro-8-(1-phenyl-1H-pyrazol-4-yl)-9-(2,2,2-trifluoroethyl)-9H-pyrido[3,4-b]indole] were 7900 nM, 3900 nM, 40 to 100% and 50 to 80%.
Taken in the same sequence, the figures for `Cc1nccc2c1[nH]c1c(-c3ccc(OCCn4cccn4)cc3)cc(Cl)cc12` [Example 13, 6-Chloro-1-methyl-8-[4-(2-(1H-pyrazol-1-yl)ethoxy)-phenyl]-9H-pyrido[3,4-b]indole] were 1100 nM, 120 nM, above 200% and above 80%.
Taken in the same sequence, the figures for `CCn1c2c(-c3ccnn3C)cc(Cl)cc2c2ccnc(C)c21` [Example 19, 6-Chloro-9-ethyl-1-methyl-8-(2-methyl-2H-pyrazol-3-yl)-9H-pyrido[3,4-b]indole] were 6900 nM, above 10000 nM, 40 to 100% and 50 to 80%.
In test [1], `CCn1c2c(-c3cnn(C)c3)cc(Br)cc2c2cc(C)nc(C)c21` [Example 21, 6-Bromo-9-ethyl-1,3-dimethyl-8-(1-methyl-1H-pyrazol-4-yl)-9H-pyrido[3,4-b]indole] returned an EC50 of 4300 nM and an Emax above 200%. In test [2], this compound displayed an EC50 above 3300 nM and a maximal response (Emax) of 20 to 50%.
For `COc1ccc(-c2cc(Cl)cc3c4ccnc(C)c4n(C)c23)cc1` [Example 22, 6-Chloro-8-(4-methoxy-phenyl)-1,9-dimethyl-9H-pyrido[3,4-b]indole], the EC50 in test [1] worked out at 4000 nM; in test [2], 630 nM. The Emax in test [1] is above 200%; in test [2] it was above 80%.
The matching figures for `COc1ccc(-c2cc(Cl)c(C)c3c2[nH]c2c(C)nccc23)cc1` [Example 27, 6-Chloro-8-(4-methoxy-phenyl)-1,5-dimethyl-9H-pyrido[3,4-b]indole]: 3500 nM, 97 nM, above 200% and above 80%.
The matching figures for `Cc1nccc2c1[nH]c1c(-c3ccc(CNC4CCCC4)cc3)cc(Cl)cc12` [Example 29, [4-(6-Chloro-1-methyl-9H-pyrido[3,4-b]indol-8-yl)-benzyl]-cyclopentyl-amine]: 1500 nM, above 1100 nM, 100 to 200% and below 20%.
Turning to `Cc1nccc2c3cc(Cl)cc(-c4cnccc4Cl)c3n(CC3CC3)c12` [Example 283, 6-Chloro-8-(4-chloro-pyridin-3-yl)-9-cyclopropylmethyl-1-methyl-9H-pyrido[3,4-b]indole], in test [2], the EC50 worked out at 410 nM and the Emax was below 20%.
In test [2], `Cc1nccc2c3cc(Cl)cc(-c4cccnc4Cl)c3n(CC3CC3)c12` [Example 284, 6-Chloro-8-(2-chloro-pyridin-3-yl)-9-cyclopropylmethyl-1-methyl-9H-pyrido[3,4-b]indole] showed an EC50 of 4200 nM and an Emax below 20%.
Take `Cc1nccc2c3cc(Cl)cc(-c4ccc(Cl)nc4Cl)c3n(CC3CC3)c12` [Example 285, 6-Chloro-9-cyclopropylmethyl-8-(2,6-dichloro-pyridin-3-yl)-1-methyl-9H-pyrido[3,4-b]indole]: in test [2], the EC50 was 6100 nM and the Emax was 20 to 50%.
Taken in the same sequence, the figures for `Cc1nccc2c3cc(Cl)cc(-c4cnc(N(C)C)nc4)c3n(CC3CC3)c12` [Example 286, [5-(6-Chloro-9-cyclopropylmethyl-1-methyl-9H-pyrido[3,4-b]indol-8-yl)-pyrimidin-2-yl]-dimethyl-amine] were 41 nM and below 20%.
As for `Cn1cc(-c2cc(Cl)cc3c4ccncc4n(CC4CC4)c23)cn1` [Example 287, 6-Chloro-9-cyclopropylmethyl-8-(1-methyl-1H-pyrazol-4-yl)-9H-pyrido[3,4-b]indole], in test [2], the EC50 worked out at 230 nM and the Emax is 50 to 80%.
In test [2], `COc1ccc(-c2cc(Cl)cc3c4ccncc4n(C4CC4)c23)cc1` [Example 289, 6-Chloro-9-cyclopropyl-8-(4-methoxy-phenyl)-9H-pyrido[3,4-b]indole] registered an EC50 of 750 nM and an Emax above 80%.
Taken in the same sequence, the figures for `Cc1nccc2c3cc(Cl)cc(-c4cnn(Cc5cccnc5)c4)c3n(CC3CC3)c12` [Example 290, 6-Chloro-9-cyclopropylmethyl-1-methyl-8-(1-pyridin-3-ylmethyl-1H-pyrazol-4-yl)-9H-pyrido[3,4-b]indole] were above 10000 nM and 20 to 50%.
Taken in the same sequence, the figures for `Clc1ccc(-c2cc(Cl)cc3c4ccncc4n(CC4CC4)c23)cc1` [Example 291, 6-Chloro-8-(4-chloro-phenyl)-9-cyclopropylmethyl-9H-pyrido[3,4-b]indole] were 1700 nM and 50 to 80%.
The matching figures for `Cc1nccc2c3cc(Cl)cc(-c4ccccc4C(N)=O)c3n(CC3CC3)c12` [Example 292, 2-(6-Chloro-9-cyclopropylmethyl-1-methyl-9H-pyrido[3,4-b]indol-8-yl)-benzamide]: above 6600 nM and below 20%.
With `COc1ccc(-c2cc(Cl)cc3c4ccnc(C)c4n(CC4CC4)c23)cc1` [Example 293, 6-Chloro-9-cyclopropylmethyl-8-(4-methoxy-phenyl)-1-methyl-9H-pyrido[3,4-b]indole], in test [2], it took 4500 nM to reach a half-maximal effect (EC50) and the Emax is 50 to 80%.
In test [2], `CN(C)c1ccc(-c2cc(Cl)cc3c4ccncc4n(CC4CC4)c23)c(Cl)n1` [Example 294, [6-Chloro-5-(6-chloro-9-cyclopropylmethyl-9H-pyrido[3,4-b]indol-8-yl)-pyridin-2-yl]-dimethyl-amine] yielded an EC50 of 1200 nM and an Emax above 80%.
